The record followed here is US10377770B2 (Novartis AG, priority 2015, dated 2019).

The assay addresses C-Raf FL (full length CRAF with Y340E and Y341E activating mutations, co-expressed with h14-3-3 zeta) (Homo sapiens (Human), UniProt P04049, Y340E/Y341E). As to the kind of experiment: In vitro Raf activity determination, AlphaScreen p-MEK readout, c-Raf (C-Raf FL). It is filed as biochemical. The settings on record: c-Raf approximately 4 nM, ATP 1 μM, pre-incubation 60 minutes, reaction 1 hour. An outline of the steps: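 Full-length C-Raf (~4 nM) pre-incubated 60 min at room temperature with compound and kinase-dead biotinylated MEK1 (~10 nM) in Tris pH 7.5, 15 mM MgCl2, BSA, DTT. Reaction started with 1 μM ATP and run 1 h at room temperature. Phospho-MEK detected by AlphaScreen with anti-p-MEK antibody.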
In general terms: Bead proximity is the source of the signal in Alpha formats.

Chain of C-Raf FL (full length CRAF with Y340E and Y341E activating mutations, co-expressed with h14-3-3 zeta) (P04049 whole entry Y340E/Y341E): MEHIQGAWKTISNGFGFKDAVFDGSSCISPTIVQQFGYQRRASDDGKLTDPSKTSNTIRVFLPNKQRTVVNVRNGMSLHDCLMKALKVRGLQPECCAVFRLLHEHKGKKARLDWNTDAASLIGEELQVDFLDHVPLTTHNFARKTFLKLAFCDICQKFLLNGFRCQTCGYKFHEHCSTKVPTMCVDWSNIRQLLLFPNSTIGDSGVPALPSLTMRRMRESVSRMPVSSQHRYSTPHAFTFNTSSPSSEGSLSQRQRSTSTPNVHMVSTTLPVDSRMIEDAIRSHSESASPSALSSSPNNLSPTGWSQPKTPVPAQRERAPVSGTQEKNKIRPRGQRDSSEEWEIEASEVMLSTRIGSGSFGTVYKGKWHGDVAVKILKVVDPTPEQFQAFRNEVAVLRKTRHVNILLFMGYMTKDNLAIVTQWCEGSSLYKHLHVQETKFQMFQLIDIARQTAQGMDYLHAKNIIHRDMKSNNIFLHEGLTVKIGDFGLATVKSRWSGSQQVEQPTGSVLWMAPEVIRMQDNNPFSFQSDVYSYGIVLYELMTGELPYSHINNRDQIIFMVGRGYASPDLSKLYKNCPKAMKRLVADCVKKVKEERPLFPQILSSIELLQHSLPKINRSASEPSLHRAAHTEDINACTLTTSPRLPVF
Chain of C-Raf FL (full length CRAF with Y340E and Y341E activating mutations, co-expressed with h14-3-3 zeta) (P63104 whole entry partner): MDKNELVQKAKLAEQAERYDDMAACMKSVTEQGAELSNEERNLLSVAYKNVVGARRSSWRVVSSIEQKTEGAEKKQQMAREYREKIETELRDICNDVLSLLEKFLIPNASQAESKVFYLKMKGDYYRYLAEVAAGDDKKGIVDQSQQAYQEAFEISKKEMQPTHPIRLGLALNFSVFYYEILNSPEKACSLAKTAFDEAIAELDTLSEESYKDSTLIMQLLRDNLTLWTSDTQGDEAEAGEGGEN

The term IC50 denotes the midpoint of a concentration-inhibition curve. Lower therefore signals greater potency in that assay. As for `CCN1C(=O)CC2COCCN2c2cc(-c3cc(NC(=O)c4ccnc(C(C)(F)F)c4)ccc3C)cnc21` (racemic) [Example 125, rac-2-(1,1-Difluoroethyl)-N-(3-(7-ethyl-6-oxo-1,2,4a,5,6,7-hexahydro-4H-[1,4]oxazino[4,3-d]pyrido[2,3-b][1,4]diazepin-10-yl)-4-methylphenyl)isonicotinamide], the IC50 came out at 0.034 nM.

For `Cc1ccc(NC(=O)c2ccnc(C(C)(F)F)c2)cc1-c1cc2n(c(=O)c1)CCC1COCCN21` (stereo not shown) [Example 95], the half-inhibitory concentration (IC50) turned out to be 0.03 nM.

`CCN1C(=O)C2CCOCCC2c2cc(-c3cc(NC(=O)c4cccc(C(F)(F)F)c4)cnc3C)cnc21` (stereo not drawn) [Example 250, N-(5-((5a, 11b- trans)-7-ethyl-6-oxo-1,2,4,5,5a,6,7,11b-octahydrooxepino [4,5-c][1,8]naphthyridin-10-yl)-6-methylpyridin-3-yl)-3-(trifluoromethyl) benzamide] returned an IC50 of 0.3 nM.

Take `Cc1ccc(NC(=O)c2ccnc(C(F)(F)F)c2)cc1-c1cc2n(c(=O)c1)CCC1COCCN21` (racemic) [Example 94, (rac)-N-(4-methyl-3-(8-oxo-2,4,4a,5,6,8-hexahydro-1H-pyrido[2′,1′:2,3]pyrimido[6,1-c][1,4]oxazin-10-yl)phenyl)-2-(trifluoromethyl)isonicotinamide]: the IC50 was determined as 0.019 nM. Against the preceding molecule, the IC50 is about 16-fold lower.

Molecule `Cc1ccc(NC(=O)c2ccnc(C(C)(F)F)c2)cc1-c1cnc2c(c1)N1CCOCC1C(CS(C)(=O)=O)C2` (stereo not shown) [Example 99, 2-(1,1-difluoroethyl)-N-(4-methyl-3-(5-((methylsulfonyl)methyl)-1,2,4,4a,5,6-hexahydro-[1,4]oxazino[4,3-a][1,5]naphthyridin-9-yl)phenyl)isonicotinamide] registered an IC50 of 0.038 nM.

The molecule `Cc1ccc(NC(=O)c2ccnc(C(C)(F)F)c2)cc1-c1cnc2c(c1)N1CCOC[C@H]1C(C)(C)[C@@H]2O` (racemic) [Example 160, rac-cis-2-(1,1-difluoroethyl)-N-(3-(6-hydroxy-5,5-dimethyl-1,2,4,4a,5,6-hexahydro-[1,4]oxazino[4,3-a][1,5]naphthyridin-9-yl)-4-methylphenyl)isonicotinamide] gave an IC50 of 0.027 nM.

Turning to `Cc1ccc(NC(=O)c2ccnc(C(F)(F)F)c2)cc1-c1cnc2c(c1)N1CCOC[C@@H]1[C@@H](C(C)(C)O)C2` [Example 454], the IC50 was 0.8 nM.

For `Cc1ncc(NC(=O)c2cccc(C(F)(F)F)c2)cc1-c1cnc2c(c1)N1CCOC[C@H]1[C@H](CO)C2` [Example 120, N-(5-((4aR,5R)-5-(Hydroxymethyl)-1,2,4,4a,5,6-hexahydro-[1,4]oxazino[4,3-a][1,5]naphthyridin-9-yl)-6-methylpyridin-3-yl)-3-(trifluoromethyl)benzamide], the IC50 was 0.011 nM. Against the preceding molecule, the IC50 is about 73-fold lower.

`Cc1ccc(NC(=O)c2ccnc(C(F)(F)F)c2)cc1-c1cnc2c(c1)C1(C)CCOCCC1C(=O)N2CCO` (single isomer, unassigned) [Example 355, N-(3-((5a,11b-trans)-7-(2-hydroxyethyl)-11b-methyl-6-oxo-1,2,4,5,5a,6,7,11b-octahydrooxepino[4,5-c][1,8]naphthyridin-10-yl)-4-methylphenyl)-2-(trifluoromethyl)isonicotinamide] came in with an IC50 of 1.2 nM.

`Cc1ccc(NC(=O)c2ccnc(C(C)(F)F)c2)cc1-c1ccc2c(c1)N1CCOC[C@@H]1C1(COC1)C2` [Example 58, (S)-2-(1,1-difluoroethyl)-N-(4-methyl-3-(1′,2′,4′,4a′-tetrahydro-6′H-spiro[oxetane-3,5′-[1,4]oxazino[4,3-a]quinolin]-9′-yl)phenyl)isonicotinamide] returned an IC50 of 0.01 nM.

In the case of `Cc1ccc(NC(=O)c2cc(C(C)(C)N)cc(C(F)(F)F)c2)cc1-c1ccc2c(c1)N1CCOC[C@H]1[C@](F)(CO)C2` [Example 392, 3-(2-aminopropan-2-yl)-N-(3-((4aS,5S)-5-fluoro-5-(hydroxymethyl)-1,2,4,4a.5,6-hexahydro-[1,4]oxazino[4,3-a]quinolin-9-yl)-4-methylphenyl)-5-(trifluoromethyl)benzamide], the half-inhibitory concentration (IC50) stood at 3.4 nM.

Consider `Cc1ccc(NC(=O)c2cc(C(F)(F)F)ccn2)cc1-c1cnc2c(c1)N1CCOCC1C(CO)(CO)C2` (racemic) [Example 159, rac-N-(3-(5,5-bis(hydroxymethyl)-1,2,4,4a,5,6-hexahydro-[1,4]oxazino[4,3-a][1,5]naphthyridin-9-yl)-4-methylphenyl)-4-(trifluoromethyl)picolinamide], for which it took 0.0068 nM to reach half-maximal inhibition (IC50).

For `Cc1ncc(NC(=O)c2cccc(C(F)(F)F)c2)cc1-c1cnc2c(c1)N1CCOC[C@@H]1[C@H](C(C)(C)O)C2` [Example 449, N-(5-((4aS,5R)-5-(2-hydroxypropan-2-yl)-1,2,4,4a,5,6-hexahydro-[1,4]oxazino[4,3-a] [1,5]naphthyridin-9-yl)-6-methylpyridin-3-yl)-3-(trifluoro-methyl)benzamide], the concentration for half-maximal inhibition (IC50) came out at 0.7 nM.

The molecule `Cc1ccc(NC(=O)c2ccnc(C(F)(F)F)c2)cc1-c1ccc2c(c1)N1CCOC[C@H]1[C@](F)(CO)C2` [Example 382, N-(3-((4aS,5S)-5-fluoro-5-(hydroxymethyl)-1,2,4,4a,5,6-hexahydro-[1,4]oxazino[4,3-a]quinolin-9-yl)-4-methylphenyl)-2-(trifluoromethyl)isonicotinamide] showed an IC50 of 0.2 nM.

For `CCN1C(=O)C[C@H]2COCCN2c2cc(-c3cc(NC(=O)c4cnnc(C(F)(F)F)c4)ccc3C)cnc21` [Example 326, (S)-N-(3-(7-ethyl-6-oxo-2,4,4a,5,6,7-hexahydro-1H-[1,4]oxazino[4,3-d]pyrido[2,3-b][1,4]diazepin-10-yl)-4-methylphenyl)-6-(trifluoromethyl) pyridazine-4-carboxamide], the midpoint of inhibition, the IC50, lay at 0.5 nM.

Take `Cc1ccc(NC(=O)c2ccnc(C(C)(F)F)c2)cc1-c1ccc2c(c1)N1CCOCC1C(F)(CO)C2` (single isomer, unassigned) [Example 82, 2-(1,1-difluoroethyl)-N-(3-(5-fluoro-5-(hydroxymethyl)-1,2,4,4a,5,6-hexahydro-[1,4]oxazino[4,3-a]quinolin-9-yl)-4-methylphenyl)isonicotinamide]: the IC50 turned out to be 0.17 nM.

For `CCN1C(=O)C[C@H]2COCCN2c2cc(-c3cc(NC(=O)c4ccnc(C(C)(F)F)c4)ccc3C)cnc21` [Example 127, (S)-2-(1,1-difluoroethyl)-N-(3-(7-ethyl-6-oxo-1,2,4a,5,6,7-hexahydro-4H-[1,4]oxazino[4,3-d]pyrido[2,3-b][1,4]diazepin-10-yl)-4-methylphenyl)isonicotinamide], the IC50 was 0.048 nM.

The molecule `Cc1ccc(NC(=O)c2ccnc(C(F)(F)F)c2)cc1-c1ccc2c(c1)N1CCOC[C@H]1C[C@H]2O` (racemic) [Example 3, (rac)-(trans)-N-(3-(6-hydroxy-1,2,4,4a,5,6-hexahydro-[1,4]oxazino[4,3-a]quinolin-9-yl)-4-methylphenyl)-2-(trifluoromethyl)isonicotinamide] had an IC50 of 0.031 nM.

Turning to `Cc1ccc(NC(=O)c2cnnc(C(F)(F)F)c2)cc1-c1cc2c(cc1F)C[C@@](F)(CO)[C@@H]1COCCN21` [Example 482, N-(3-((4aS,5S)-5,8-difluoro-5-(hydroxymethyl)-1,2,4,4a,5,6-hexahydro-[1,4]oxazino[4,3-a]quinolin-9-yl)-4-methylphenyl)-6-(trifluoromethyl) pyridazine-4-carboxamide], 0.3 nM corresponded to half-maximal inhibition (IC50).

The molecule `Cc1ccc(NC(=O)c2ccnc(C(F)(F)F)c2)cc1-c1ccc2c(c1)N1CCOC[C@H]1[C@](F)(CO)C2` [Example 381, N-(3-((4aS,5S)-5-fluoro-5-(hydroxymethyl)-1,2,4,4a,5,6-hexahydro-[1,4]oxazino[4,3-a]quinolin-9-yl)-4-methylphenyl)-2-(trifluoromethyl)isonicotinamide] gave an IC50 of 0.3 nM.

For the molecule `Cc1ccc(NC(=O)c2ccnc(C(C)(F)F)c2)cc1-c1cnc2c(c1)N1CCOC[C@@H]1[C@](C#N)(CF)C2` [Example 516, N-(3-((4aS,5R)-5-cyano-5-(fluoromethyl)-1,2,4,4a,5,6-hexahydro-[1,4]oxazino[4,3-a][1,5]naphthyridin-9-yl)-4-methylphenyl)-2-(1,1-difluoroethyl)iso-nicotinamide], it took 0.1 nM to reach half-maximal inhibition (IC50).

Molecule `Cc1ccc(NC(=O)c2ccnc(C(C)(C)F)c2)cc1-c1cc(F)c2c(c1)N1CCOC[C@@H]1[C@@](F)(CO)C2` [Example 427, N-(3-((4aR,5R)-5,7-difluoro-5-(hydroxymethyl)-1,2,4,4a,5,6-hexahydro-[1,4]oxazino[4,3-a]quinolin-9-yl)-4-methylphenyl)-2-(2-fluoropropan-2-yl)isonicotinamide] gave an IC50 of 0.6 nM.

Turning to `Cc1ccc(NC(=O)c2ccnc(C(F)(F)F)c2)cc1-c1ccc2c(c1)N1CCOCC1C(CS(C)(=O)=O)C2` (racemic) [Example 363, (rac)-N-(4-methyl-3-(5-((methylsulfonyl)methyl)-1,2,4,4a,5,6-hexahydro-[1,4]oxazino[4,3-a]quinolin-9-yl)phenyl)-2-(trifluoromethyl)isonicotinamide], the IC50 stood at 0.1 nM.

As to `CCN1C(=O)N2COCCC2(C)c2cc(-c3cc(NC(=O)c4ccnc(C(F)(F)F)c4)ccc3C)ccc21` (stereo not shown) [Example 242, N-(3-(7-ethyl-11b-methyl-6-oxo-1,2,4,6,7,11b-hexahydro-[1,3]oxazino[3,4-c]quinazolin-10-yl)-4-methylphenyl)-2-(trifluoromethyl) isonicotinamide], the IC50 was found to be 0.3 nM.

`Cc1ccc(NC(=O)c2ccnc(C(C)(C)C#N)c2)cc1-c1cnc2c(c1)N1CCOC[C@H]1C[C@@H]2O` (racemic) [Example 149, rac-cis-2-(2-cyanopropan-2-yl)-N-(3-(6-hydroxy-1,2,4,4a,5,6-hexahydro-[1,4]oxazino[4,3-a][1,5]naphthyridin-9-yl)-4-methylphenyl)isonicotinamide]: the IC50 came to 0.013 nM.
